Experimental data from ChEMBL document CHEMBL3102847, “Structure of the σ1 receptor and its ligand binding site” (J Med Chem, 2013).

What was measured:
[1] = target: T1, Sigma non-opioid intracellular receptor 1 (Rattus norvegicus, UniProt Q9R0C9); test: Displacement of [125I]IACoc from sigma 1 receptor in rat liver microsomes
[2] = target: T2, Sigma non-opioid intracellular receptor 1 (Homo sapiens, UniProt Q99720); test: Displacement of [125I]N-IACoc from sigma 1 receptor (unknown origin)
[3] = target: T2, Sigma non-opioid intracellular receptor 1; test: Displacement of [125I]N-IAC44 from sigma 1 receptor (unknown origin)
[4] = target: T1, Sigma non-opioid intracellular receptor 1; test: Displacement of [3H]-(+)-pentazocine from sigma 1 receptor in rat liver homogenates; format: tissue-based

T1 sequence (Q9R0C9 whole entry): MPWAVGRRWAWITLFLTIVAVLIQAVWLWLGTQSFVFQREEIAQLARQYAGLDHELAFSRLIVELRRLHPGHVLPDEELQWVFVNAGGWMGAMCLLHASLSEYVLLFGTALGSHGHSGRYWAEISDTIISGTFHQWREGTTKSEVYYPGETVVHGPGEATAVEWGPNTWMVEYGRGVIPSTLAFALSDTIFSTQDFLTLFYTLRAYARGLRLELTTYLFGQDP
T2 sequence (Q99720 whole entry): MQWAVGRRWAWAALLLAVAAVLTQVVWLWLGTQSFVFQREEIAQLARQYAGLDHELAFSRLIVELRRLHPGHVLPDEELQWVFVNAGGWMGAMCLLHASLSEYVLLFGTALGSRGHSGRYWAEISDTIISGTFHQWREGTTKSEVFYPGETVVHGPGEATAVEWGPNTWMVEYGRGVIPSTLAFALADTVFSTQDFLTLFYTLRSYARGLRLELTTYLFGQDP

Work on `COC(=O)[C@H]1[C@@H](OC(=O)c2ccc(N=[N+]=[N-])c([125I])c2)C[C@@H]2CC[C@H]1N2C` yielded a Ki [1] of 0.126 nM.
`COC(=O)[C@H]1[C@@H](OC(=O)c2ccccc2)C[C@@H]2CC[C@H]1N2CCc1ccc(N=[N+]=[N-])c([125I])c1` showed a Kd [2] of 11 nM.
In the case of `CCCN(CCCc1ccccc1)CCc1ccc(N=[N+]=[N-])c([125I])c1`, the Kd [3] is reported as 7.2 nM.
For `CN(C)CCc1c[nH]c2ccccc12` [N,N-DIMETHYLTRYPTAMINE], the Ki [4] was 15400 nM.
